Counter-ions that a name gives are not always drawn.
Tests used:
activated human C1 = target: T1, activated human C1 (Homo sapiens, UniProt P09871); assay: Test Code 026 (C1-inhibitor); assay type: biochemical; settings: serial twofold dilution assay; higher well number indicates higher activity
T1 construct: cleavage of fluid-phase human C2 in presence of C4
Excerpt: (§1) An active inhibitor protects C2 from C1 and C4; (ii) Test Code 035 (C3-C9 inhibitor)--This test determines the ability of the late components of human complement (C3-C9) to lyse EAC 142 in the presence of appropriate dilutions of the test compound. An active inhibitor protects EAC 142 from lysis by human C3-C9; (iii) Test Code 036 (C-Shunt inhibitor)--In this test human erythrocytes rendered fragile are lysed in autologous serum via the shunt pathway activated by cobra venom factor in the presence of appropriate dilutions of the test compound. Inhibition of the shunt pathway results in failure of lysis; (iv) Forssman Vasculitis Test--Here, the well known complement dependent lesion, Forssman vasculitis, is produced in guinea pigs by intradermal injection of rabbit anti-Forssman antiserum. The lesion is measured in terms of diameter, edema and hemorrhage and the extent to which a combined index of these is inhibited by prior intraperitoneal injection of the test compound at 200 mg/kg is then reported, unless otherwise stated; (v) Forssman Shock Test--Lethal shock is produced in guinea pigs by an i.v. injection of anti-Forssman antiserum and the harmonic mean death time of treated guinea pigs is compared with that of simultaneous controls; (vi) Complement Level Reduction Test--In this test, the above dosed guinea pigs, or others, are bled for serum and the complement level is determined in undiluted serum by the capillary tube method of U.S. Pat. No. 3,876,376 and compared to undosed control guinea pigs; and (vii) Cap 50 Test--Here, appropriate amounts of the test compound are added to a pool of guinea pig serum in vitro, after which the undiluted serum capillary tube assay referred to above is run. The concentration of compound inhibiting 50% is reported.

[1] = system: late components of human complement (C3-C9); assay: Test Code 035 (C3-C9 inhibitor), lysis of EAC 142; assay type: biochemical; settings: serial twofold dilution assay; higher well number indicates higher activity
Excerpt: as §1

[2] = system: shunt pathway activated by cobra venom factor; assay: Test Code 036 (C-Shunt inhibitor), lysis of human erythrocytes in autologous serum, cobra venom factor; assay type: cell-based; settings: serial twofold dilution assay; higher well number indicates higher activity
Excerpt: as §1

complement system = settings: known from the literature; cited from earlier work

T1 sequence (P09871 16-688): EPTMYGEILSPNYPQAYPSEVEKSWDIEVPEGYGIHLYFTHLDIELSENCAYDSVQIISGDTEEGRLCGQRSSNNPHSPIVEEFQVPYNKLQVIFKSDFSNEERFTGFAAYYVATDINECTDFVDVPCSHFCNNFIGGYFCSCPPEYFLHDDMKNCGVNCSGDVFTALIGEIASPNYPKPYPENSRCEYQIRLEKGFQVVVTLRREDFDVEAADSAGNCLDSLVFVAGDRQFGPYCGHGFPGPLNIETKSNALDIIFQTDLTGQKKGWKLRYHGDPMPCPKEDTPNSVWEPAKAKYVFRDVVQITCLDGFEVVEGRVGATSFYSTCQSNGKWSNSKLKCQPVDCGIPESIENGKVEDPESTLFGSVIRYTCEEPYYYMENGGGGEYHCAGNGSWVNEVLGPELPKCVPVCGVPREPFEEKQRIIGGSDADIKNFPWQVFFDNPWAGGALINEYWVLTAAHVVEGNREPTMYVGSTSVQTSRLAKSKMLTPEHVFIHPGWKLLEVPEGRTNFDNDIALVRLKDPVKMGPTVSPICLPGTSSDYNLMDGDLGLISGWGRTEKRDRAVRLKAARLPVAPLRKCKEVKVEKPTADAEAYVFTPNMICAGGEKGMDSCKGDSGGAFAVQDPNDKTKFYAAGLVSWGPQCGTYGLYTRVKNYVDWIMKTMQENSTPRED
T1 sequence (P00736 18-705 partner): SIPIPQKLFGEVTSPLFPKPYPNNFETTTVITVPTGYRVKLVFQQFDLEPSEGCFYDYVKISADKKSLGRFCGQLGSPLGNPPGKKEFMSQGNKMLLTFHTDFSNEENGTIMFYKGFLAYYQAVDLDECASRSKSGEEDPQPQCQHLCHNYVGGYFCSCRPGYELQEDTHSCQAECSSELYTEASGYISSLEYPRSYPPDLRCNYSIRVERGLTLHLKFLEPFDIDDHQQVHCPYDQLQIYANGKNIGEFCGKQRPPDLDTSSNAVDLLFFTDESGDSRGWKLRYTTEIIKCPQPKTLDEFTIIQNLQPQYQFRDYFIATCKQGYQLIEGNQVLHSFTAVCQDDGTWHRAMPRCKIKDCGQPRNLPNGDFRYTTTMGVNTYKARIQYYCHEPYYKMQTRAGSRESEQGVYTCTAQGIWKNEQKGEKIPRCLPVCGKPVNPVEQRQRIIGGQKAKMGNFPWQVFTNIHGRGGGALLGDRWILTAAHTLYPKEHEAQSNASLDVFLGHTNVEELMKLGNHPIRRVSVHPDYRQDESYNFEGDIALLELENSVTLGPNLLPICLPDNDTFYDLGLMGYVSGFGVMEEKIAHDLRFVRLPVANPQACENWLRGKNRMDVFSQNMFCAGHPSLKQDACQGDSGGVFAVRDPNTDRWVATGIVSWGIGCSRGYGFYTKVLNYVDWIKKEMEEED
T1 sequence (P02745 23-245 partner): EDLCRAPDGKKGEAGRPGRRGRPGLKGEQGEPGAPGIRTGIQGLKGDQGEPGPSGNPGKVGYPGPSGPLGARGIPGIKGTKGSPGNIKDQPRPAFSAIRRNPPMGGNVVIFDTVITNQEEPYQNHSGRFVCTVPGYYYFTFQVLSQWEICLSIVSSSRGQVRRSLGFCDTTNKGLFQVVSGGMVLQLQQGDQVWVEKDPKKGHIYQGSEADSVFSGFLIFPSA
T1 sequence (P02746 28-253 partner): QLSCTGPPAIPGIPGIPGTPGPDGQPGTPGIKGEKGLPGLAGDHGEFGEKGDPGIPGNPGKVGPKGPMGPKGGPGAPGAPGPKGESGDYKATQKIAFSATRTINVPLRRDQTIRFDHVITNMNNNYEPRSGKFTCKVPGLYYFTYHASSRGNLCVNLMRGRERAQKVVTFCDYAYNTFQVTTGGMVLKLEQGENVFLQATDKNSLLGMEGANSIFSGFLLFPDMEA
T1 sequence (P02747 29-245 partner): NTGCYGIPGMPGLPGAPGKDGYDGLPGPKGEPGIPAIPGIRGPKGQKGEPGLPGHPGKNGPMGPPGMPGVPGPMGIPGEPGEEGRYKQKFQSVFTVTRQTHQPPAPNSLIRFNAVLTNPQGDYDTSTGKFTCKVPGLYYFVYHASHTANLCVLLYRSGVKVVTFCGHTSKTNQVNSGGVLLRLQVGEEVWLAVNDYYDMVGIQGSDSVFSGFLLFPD

Row | SMILES | Cl 026* Wells (activated human C1) | C-Late 035* Wells [1] | Shunt Inhibition 036* Wells [2] | activity as a complement inhibitor (complement system)
1 | Cc1ccc(S(=O)(=O)Nc2ccc(S(=O)(=O)O)c3cc(S(=O)(=O)O)cc(S(=O)(=O)O)c23)cc1NS(=O)(=O)c1cccc(NC(=O)Nc2cccc(S(=O)(=O)Nc3cc(S(=O)(=O)Nc4ccc(S(=O)(=O)O)c5cc(S(=O)(=O)O)cc(S(=O)(=O)O)c45)ccc3C)c2)c1 [8,8'-[Ureylenebis[(m-phenylenesulfonylimino) (4-methyl-3,1-phenylenesulfonyl)imino]]di-1,3,5-naphthalenetrisulfonic acid, hexasodium salt] | +3 Wells | +1 Wells | N | 
2 | Cc1ccc(NC(=O)Nc2ccc(C)c(S(=O)(=O)Nc3ccc(C)c(S(=O)(=O)Nc4cc(S(=O)(=O)[O-])cc5cc(S(=O)(=O)[O-])cc(S(=O)(=O)[O-])c45)c3)c2)cc1S(=O)(=O)Nc1ccc(C)c(S(=O)(=O)Nc2cc(S(=O)(=O)[O-])cc3cc(S(=O)(=O)[O-])cc(S(=O)(=O)[O-])c23)c1.[Na+].[Na+].[Na+].[Na+].[Na+].[Na+] [8,8'-[Ureylenebis[[[(6-methyl-3,1-phenylene)sulfonyl]imino]-[[(6-methyl-3,1-phenylene)sulfonyl]imino]]]di-1,3,6-naphthalenetrisulfonic acid, hexasodium salt] | +3 Wells | +1 Wells | N | 
3 | Cc1ccc(C(=O)Nc2ccc(S(=O)(=O)O)c3cc(S(=O)(=O)O)cc(S(=O)(=O)O)c23)cc1NC(=O)c1cccc(NC(=O)Nc2cccc(C(=O)Nc3cc(C(=O)Nc4ccc(S(=O)(=O)O)c5cc(S(=O)(=O)O)cc(S(=O)(=O)O)c45)ccc3C)c2)c1 [Suramin, reference compound] | +4 Wells | +2 Wells |  | moderately active
4 | O=C(Nc1cccc(S(=O)(=O)Nc2cccc(S(=O)(=O)Nc3cc(S(=O)(=O)O)cc4cc(S(=O)(=O)O)cc(S(=O)(=O)O)c34)c2)c1)Nc1cccc(S(=O)(=O)Nc2cccc(S(=O)(=O)Nc3cc(S(=O)(=O)O)cc4cc(S(=O)(=O)O)cc(S(=O)(=O)O)c34)c2)c1 [8,8'-[Ureylenebis[[(1,3-phenylenesulfonylimino)-1,3-phenylenesulfonyl]imino]]di-1,3,6-naphthalenetrisulfonic acid, hexasodium salt] | +4 Wells | +5 Wells | +1 Wells | 
